We go through 25 compounds from patent US7745446B2, “Pyrazolo[1,5-c]pyrimidines” (Bayer Schering Pharma Aktiengesellschaft, priority 2004, dated 2010).

For one test, the target named is T1, GST-ΔPH-Akt1 (Homo sapiens, UniProt P31749).
T1 construct: named GST-deltaPH-Akt1; 107-480aa; cloned in the pAcGl vector; GST (N); made in house; host or cells: SF9 insect cells (baculovirus vector pAcG1), co-expressed with PDK1
The experiment in a line: Biochemical ΔPH Akt1 assay (flashplate, 33P incorporation into histone 2B). The conditions noted are these: 100 nM ATP, histone 2B substrate; read-out: ΔPHAkt1 inhibition: IC50. The source says: For the biochemical assay ΔPHAkt1 is used devoid of its PH domain as a GST fusion protein (named GST-deltaPH-Akt1; 107-480aa; cloned in the pAcGl vector (BD Biosciences Pharmingen)), co-expressed with PDK1 in SF9 insect cells. The protein is purified using glutathion-affinity chromatography by standard protocols.
In order to study the inhibition of Akt according to the invention, a flashplate-based assay has been developed.
The Akt1 assay is a biochemical assay using Akt1 devoid of its PH domain and co-expressed with PDK1 in insect cells. The GST-ΔPH-Akt1 assay is run in 96 well plates by incubating 100 ng/well GST-ΔPH-Akt1, 100 ng/well histone 2B (Roche, #223514) as substrate, 10 μl of compound of invention (test compounds were dissolved as 10 mM solutions in dimethylsulfoxide (DMSO) and subsequently diluted) and 100 nM ATP (including ^33P-ATP) in 100 μl of reaction buffer ([…], pH7,5; 3 mM MgCl2; 3 mM MnCl2; 3 μM Na-Orthovanadat; 1 mM DTT; 1 μg/ml PEG8000) for 80 minutes at 30° C. The reactions are terminated by adding 100 μl stopping buffer (2% H3PO4 for 5 minutes) and are washed 3 times by using washing buffer (0.9% NaCl). Relying on the incorporation of ^33P into the protein substrate histone 2B, the detection is based on the adhesion of the phosphorylated protein to the surface of scintillator-coated flash plates (NEN, USA; #SMP-200). This phosphorylation is measured by counting the plate for 60 sec. using a plate reader (Wallac Microbeta; Perkin Elmer, USA).

For the next test, the system named is MCF7 cells. The experiment in a line: Cellular proliferation/cytotoxicity assay (Alamar Blue), MCF7. Particulars: Homo sapiens, MCF7, 48 h, read-out: Anti-proliferative/cytotoxic activity: IC50 MCF7. (In general: Alamar Blue is a resazurin reagent that responds to reducing activity.)
A further test deals with MDA-MB-468 cells. The experiment in a line: Cellular proliferation/cytotoxicity assay (Alamar Blue), MDA-MB-468. Particulars: Homo sapiens, MDA-MB-468, 48 h, read-out: Anti-proliferative/cytotoxic activity: IC50 MDA468.

Molecules are shown by their SMILES.

T1 sequence (P31749 107-480, stated change not applied): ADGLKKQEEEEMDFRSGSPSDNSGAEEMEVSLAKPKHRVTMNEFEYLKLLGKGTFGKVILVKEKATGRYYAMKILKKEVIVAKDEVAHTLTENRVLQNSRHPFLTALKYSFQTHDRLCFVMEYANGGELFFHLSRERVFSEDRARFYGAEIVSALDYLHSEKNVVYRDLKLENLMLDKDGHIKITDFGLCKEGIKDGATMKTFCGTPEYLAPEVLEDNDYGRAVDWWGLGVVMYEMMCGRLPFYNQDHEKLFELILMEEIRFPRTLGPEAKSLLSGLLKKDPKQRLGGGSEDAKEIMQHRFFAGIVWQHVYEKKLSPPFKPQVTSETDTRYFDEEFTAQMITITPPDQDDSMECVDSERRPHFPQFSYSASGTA
Method for MCF7 cells: (§1) The anti-proliferative activity of the compounds as described herein, is evaluated using MCF7 and MDA-MB-468 (ATCC HTB-22 and HTB-132) cell lines and the Alamar Blue (Resazurin) cell viability assay (O'Brien et al. Eur J Biochem 267, 5421-5426, 2000). Resazurin is reduced to the fluorescent resorufin by cellular dehydrogenase activity, correlating with viable, proliferating cells. Test compounds are dissolved as 10 mM solutions in DMSO and subsequently diluted. MCF7 or MDA-MB-434 cells were seeded into 96 well flat bottom plates at a density of 10000 cells/well (MCF7) or 5000 cells/well (MDA-MB-468) in a volume of 200 μl/well. 24 hours after seeding, 1 μl each of the compound dilutions are added into each well of the 96 well plates. Each compound dilution is tested as at least as duplicates. Wells containing untreated control cells were filled with 200 μl DMEM containing 0.5% v:v DMSO. The cells are then incubated with the substances for 48 hours at 37° C. in a humidified atmosphere containing 5% carbon dioxide. To determine cell viability, 20 μl of a Resazurin solution (Sigma; 90 mg/l) are added. After 4 hours incubation at 37° C. the fluorescence is measured at an extinction of 544 nm and an emission of 590 nm (Wallac Victor2; Perkin Elmer, USA). For the calculation of the cell viability the emission value from untreated cells is set as 100% viability and the emission rates of treated cells are set in relation to the values of untreated cells. Viabilities are expressed as % values. The corresponding IC50 values of the compounds for cytotoxic activity are determined from the concentration-effect curves by means of non-linear regression. The analysis of the data is performed using a biostatistical program (GraphPad Prism, USA).
Method for MDA-MB-468 cells: as §1

For `NCc1ccc(C(=O)Nc2ccc(Nc3nc(-c4cccc5c4oc4ccccc45)cc4ccnn34)cc2)cc1` [Example 19, 4-Aminomethyl-N-[4-(5-dibenzofuran-4-yl-pyrazolo[1,5-c]pyrimidin-7-ylamino)-phenyl]-benzamide], the IC50 on GST-ΔPH-Akt1 was no more than 1750 nM; in the test on MCF7 cells, no more than 16900 nM; with MDA-MB-468 cells, no more than 13600 nM.

On to `CC(C)(C)c1ccc(C(=O)Nc2ccc(Nc3nc(-c4cccc5c4oc4ccccc45)cc4ccnn34)cc2)cc1` [Example 10, 4-tert-Butyl-N-[4-(5-dibenzofuran-4-yl-pyrazolo[1,5-c]pyrimidin-7-ylamino)-phenyl]-benzamide], for which the IC50 on GST-ΔPH-Akt1 is no more than 2450 nM. Still for that read-out and setting: in the case of `COc1ccc(-c2ccc(-c3cc4c(Br)cnn4c(Nc4ccc(NC(=O)c5ccc(CN)cc5)cc4)n3)cc2)cc1` [Example 88, 4-Aminomethyl-N-{4-[3-bromo-5-(4′-methoxy-biphenyl-4-yl)-pyrazolo[1,5-c]pyrimidin-7-ylamino]-phenyl}-benzamide] it was no more than 1750 nM; in that of `CC(=O)Nc1cccc(-c2ccc(-c3cc4c(Br)cnn4c(Nc4ccc(NC(=O)c5ccc(CN)cc5)cc4)n3)cc2)c1` [Example 90, N-{4-[5-(3′-Acetylamino-biphenyl-4-yl)-3-bromo-pyrazolo[1,5-c]pyrimidin-7-ylamino]-phenyl}-4-aminomethyl-benzamide], no more than 1750 nM. With `NCc1cccc(C(=O)Nc2cccc(Nc3nc(-c4cccc5c4oc4ccccc45)cc4ccnn34)c2)c1` [Example 18, 3-Aminomethyl-N-[3-(5-dibenzofuran-4-yl-pyrazolo[1,5-c]pyrimidin-7-ylamino)-phenyl]-benzamide], the values for the IC50 on GST-ΔPH-Akt1, in the test with MCF7 cells and with MDA-MB-468 cells were no more than 1750 nM, no more than 16900 nM and no more than 13600 nM, respectively.

Take `COc1cccc(-c2ccc(-c3cc4ccnn4c(Nc4ccc(NC(=O)c5ccc6c(c5)CCNC6)cc4)n3)cc2)c1` [Example 77, 1,2,3,4-Tetrahydro-isoquinoline-6-carboxylic acid {4-[5-(3′-methoxy-biphenyl-4-yl)-pyrazolo[1,5-c]pyrimidin-7-ylamino]-phenyl}amide]: on GST-ΔPH-Akt1, the IC50 is no more than 1750 nM. Turning to `NCc1cccc(C(=O)Nc2ccc(Nc3nc(-c4cccc5c4oc4ccccc45)cc4ccnn34)cc2)c1` [Example 20, 3-Aminomethyl-N-[4-(5-dibenzofuran-4-yl-pyrazolo[1,5-c]pyrimidin-7-ylamino)-phenyl]-benzamide], the IC50 was no more than 1750 nM on GST-ΔPH-Akt1, no more than 16900 nM in the test on MCF7 cells and no more than 13600 nM in the test with MDA-MB-468 cells. For `NCCc1ccc(C(=O)Nc2ccc(Nc3nc(-c4ccc(Br)cc4)cc4ccnn34)cc2)cc1` [Example 84, 4-(2-Amino-ethyl)-N-{4-[5-(4-bromo-phenyl)-pyrazolo[1,5-c]pyrimidin-7-ylamino]-phenyl}-benzamide], the IC50 on GST-ΔPH-Akt1 is no more than 1750 nM.

Take `O=C(Nc1ccc(Nc2nc(-c3ccc(-c4ccc(F)cc4)cc3)cc3ccnn23)cc1)c1ccc2c(c1)CCNC2` [Example 76, 1,2,3,4-Tetrahydro-isoquinoline-6-carboxylic acid {4-[5-(4′-fluoro-biphenyl-4-yl)-pyrazolo[1,5-c]pyrimidin-7-ylamino]-phenyl}amide]: on GST-ΔPH-Akt1, the IC50 is no more than 1750 nM. On to `CN1CCN(Cc2ccc(C(=O)Nc3ccc(Nc4nc(-c5cccc(Br)c5)cc5ccnn45)cc3)cc2)CC1` [Example 2, N-{4-[5-(3-Bromo-phenyl)-pyrazolo[1,5-c]pyrimidin-7-ylamino]-phenyl}-4-(4-methyl-piperazin-1-ylmethyl)-benzamide], for which the IC50 was no more than 16900 nM in the test on MCF7 cells and no more than 13600 nM in the test with MDA-MB-468 cells. Regarding `NCc1ccc(C(=O)Nc2ccc(Nc3nc(-c4cccc(-c5ccccc5)c4)cc4ccnn34)cc2)cc1` [Example 71, 4-Aminomethyl-N-[4-(5-biphenyl-3-yl-pyrazolo[1,5-c]pyrimidin-7-ylamino)-phenyl]-benzamide], the IC50 on GST-ΔPH-Akt1 is no more than 2450 nM.

Consider `NCc1ccc(C(=O)Nc2ccc(Nc3nc(-c4ccc(-c5ccc(F)cc5)cc4)cc4c(Br)cnn34)cc2)cc1` [Example 89, 4-Aminomethyl-N-{4-[3-bromo-5-(4′-fluoro-biphenyl-4-yl)-pyrazolo[1,5-c]pyrimidin-7-ylamino]-phenyl}-benzamide], for which the IC50 on GST-ΔPH-Akt1 was no more than 1750 nM.

In the case of `Nc1ccc(C(=O)Nc2ccc(Nc3nc(-c4cccc5c4oc4ccccc45)cc4ccnn34)cc2)cc1` [Example 6, 4-Amino-N-[4-(5-dibenzofuran-4-yl-pyrazolo[1,5-c]pyrimidin-7-ylamino)-phenyl]-benzamide], on GST-ΔPH-Akt1, the IC50 was no more than 1750 nM. The same measure, in the same setting: the same measure for `CC(=O)Nc1cccc(-c2ccc(-c3cc4ccnn4c(Nc4ccc(NC(=O)c5ccc(CCN)cc5)cc4)n3)cc2)c1` [Example 82, N-{4-[5-(3′-Acetylamino-biphenyl-4-yl)-pyrazolo[1,5-c]pyrimidin-7-ylamino]-phenyl}-4-(2-amino-ethyl)-benzamide]: no more than 1750 nM. `CC(=O)Nc1cccc(-c2ccc(-c3cc4ccnn4c(Nc4ccc(NC(=O)c5ccc6c(c5)CCNC6)cc4)n3)cc2)c1` [Example 83, 1,2,3,4-Tetrahydro-isoquinoline-6-carboxylic acid {4-[5-(3′-acetylamino-biphenyl-4-yl)-pyrazolo[1,5-c]pyrimidin-7-ylamino]-phenyl}-amide]: the IC50 is no more than 16900 nM in the test on MCF7 cells and no more than 13600 nM in the test on MDA-MB-468 cells. Turning to `COc1ccc(-c2cccc(-c3cc4ccnn4c(Nc4ccc(NC(=O)c5ccc(CN)cc5)cc4)n3)c2)cc1` [Example 72, 4-Aminomethyl-N-{4-[5-(4′-methoxy-biphenyl-3-yl)-pyrazolo[1,5-c]pyrimidin-7-ylamino]-phenyl}-benzamide], on GST-ΔPH-Akt1, the IC50 is no more than 1750 nM. Regarding `NCCc1ccc(C(=O)Nc2cccc(Nc3nc(-c4cccc5c4oc4ccccc45)cc4ccnn34)c2)cc1` [Example 21, 4-(2-Amino-ethyl)-N-[3-(5-dibenzofuran-4-yl-pyrazolo[1,5-c]pyrimidin-7-ylamino)-phenyl]-benzamide], the IC50 at GST-ΔPH-Akt1 was no more than 1750 nM. On the same count and under the same terms, the same measure for `NCCc1ccc(C(=O)Nc2ccc(Nc3nc(-c4ccc(-c5ccc(F)cc5)cc4)cc4ccnn34)cc2)cc1` [Example 75, 4-(2-Amino-ethyl)-N-{4-[5-(4′-fluoro-biphenyl-4-yl)-pyrazolo[1,5-c]pyrimidin-7-ylamino]-phenyl}-benzamide]: no more than 1750 nM. As for `NCc1ccc(C(=O)Nc2ccc(Nc3nc(-c4cccc5c4oc4ccccc45)cc4c(Br)cnn34)cc2)cc1` [Example 91, 4-Aminomethyl-N-[4-(3-bromo-5-dibenzofuran-4-yl-pyrazolo[1,5-c]pyrimidin-7-ylamino) -phenyl]-benzamide], the IC50 at GST-ΔPH-Akt1 was no more than 1750 nM.

As to `NCc1ccc(C(=O)Nc2ccc(Nc3nc(-c4ccc5cc(O)ccc5c4)cc4ccnn34)cc2)cc1` [Example 44, 4-Aminomethyl-N-{4-[5-(6-hydroxy-naphthalen-2-yl)-pyrazolo[1,5-c]pyrimidin-7-ylamino]-phenyl}-benzamide], the IC50 at GST-ΔPH-Akt1 was no more than 1750 nM.

For the compound `NCCCC(=O)Nc1cccc(Nc2nc(-c3cccc4c3oc3ccccc34)cc3ccnn23)c1` [Example 22, 4-Amino-N-[3-(5-dibenzofuran-4-yl-pyrazolo[1,5-c]pyrimidin-7-ylamino)-phenyl]-butyramide], the IC50 at GST-ΔPH-Akt1 is no more than 1750 nM. For `CC(=O)Nc1cccc(-c2cccc(-c3cc4ccnn4c(Nc4ccc(NC(=O)c5ccc(CN)cc5)cc4)n3)c2)c1` [Example 73, N-{4-[5-(3′-Acetylamino-biphenyl-3-yl)-pyrazolo[1,5-c]pyrimidin-7-ylamino]-phenyl}-4-aminomethyl-benzamide], the IC50 on GST-ΔPH-Akt1 is no more than 2450 nM. As for `COc1cccc(-c2ccc(-c3cc4c(Br)cnn4c(Nc4ccc(NC(=O)c5ccc(CCN)cc5)cc4)n3)cc2)c1` [Example 86, 4-(2-Amino-ethyl)-N-{4-[3-bromo-5-(3′-methoxy-biphenyl-4-yl)-pyrazolo[1,5-]pyrimidin-7-ylamino]-phenyl}-benzamide], at GST-ΔPH-Akt1, the IC50 is no more than 1750 nM. Same read-out and setting: in the case of `COc1cccc(-c2cccc(-c3cc4ccnn4c(Nc4ccc(NC(=O)c5ccc(CN)cc5)cc4)n3)c2)c1` [Example 74, 4-Aminomethyl-N-{4-[5-(3′-methoxy-biphenyl-3-yl)-pyrazolo[1,5-c]pyrimidin-7-ylamino]-phenyl}-benzamide] it was no more than 2450 nM. The same measure, in the same setting: the same measure for `O=C(Cc1cccc(Cl)c1)Nc1ccc(Nc2nc(-c3cccc4c3oc3ccccc34)cc3ccnn23)cc1` [Example 12, 2-(3-Chloro-phenyl)-N-[4-(5-dibenzofuran-4-yl-pyrazolo[1,5-c]pyrimidin-7-ylamino) -phenyl]-acetamide]: no more than 2450 nM.
